{
  "source": "ChEMBL document CHEMBL2346507",
  "about": "(Bioorg Med Chem, 2013)",
  "key": {"[1]": {"assay": "Lipophilicity, log D of the compound at pH 7.4", "assay_type": "physicochemical", "settings": "buffer"}, "[2]": {"assay": "Thermodynamic solubility of the compound in Japanese pharmacopoeia disintegration solution 2 containing bile acid at pH 6.8 after 18 hrs by HPLC analysis", "assay_type": "physicochemical", "settings": "read-out: Therm_solubility"}, "[3]": {"assay": "Metabolic stability in mouse liver microsomes at 1 umol/L", "assay_type": "ADME, Microsome", "settings": "read-out: Stability"}, "[4]": {"assay": "Metabolic stability in human liver microsomes at 1 umol/L", "assay_type": "ADME, Microsome", "settings": "read-out: Stability"}, "[5]": {"assay": "Drug uptake in athymic BALB/cAcl-nu/nu mouse lung xenografted with human A549 cells at 1 mg/kg, po measured at 8 hrs by LC/MS/MS analysis", "assay_type": "ADME, organism-based", "design": "dose 1 mg/kg, route oral", "settings": "read-out: Drug uptake"}, "[6]": {"assay": "Plasma concentration in athymic BALB/cAcl-nu/nu mouse xenografted with human A549 cells at 1 mg/kg, po measured at 8 hrs by LC/MS/MS analysis", "assay_type": "ADME, organism-based", "design": "dose 1 mg/kg, route oral"}, "[7]": {"assay": "Drug uptake in athymic BALB/cAcl-nu/nu mouse lung xenografted with human A549 cells at 1 mg/kg, po measured at 1 hr by LC/MS/MS analysis", "assay_type": "ADME, organism-based", "design": "dose 1 mg/kg, route oral", "settings": "read-out: Drug uptake"}, "[8]": {"assay": "Plasma concentration in athymic BALB/cAcl-nu/nu mouse xenografted with human A549 cells at 1 mg/kg, po measured at 1 hr by LC/MS/MS analysis", "assay_type": "ADME, organism-based", "design": "dose 1 mg/kg, route oral"}, "[9]": {"assay": "Oral bioavailability in cynomolgus monkey at 0.5 mg/kg", "assay_type": "ADME, organism-based, Macaca fascicularis", "settings": "in vivo"}, "[10]": {"assay": "Oral bioavailability in Crl:CD (SD) albino rat at 0.5 mg/kg", "assay_type": "ADME, organism-based", "settings": "in vivo"}, "[11]": {"assay": "Mean residence time in Crl:CD (SD) albino rat at 0.5 mg/kg, po", "assay_type": "ADME, organism-based", "design": "dose 0.5 mg/kg, route oral", "settings": "in vivo"}, "[12]": {"assay": "Mean residence time in cynomolgus monkey at 0.5 mg/kg, po", "assay_type": "ADME, organism-based, Macaca fascicularis", "design": "dose 0.5 mg/kg, route oral", "settings": "in vivo"}, "[13]": {"assay": "AUC (0 to 48 hrs) in cynomolgus monkey at 0.5 mg/kg, po", "assay_type": "ADME, organism-based, Macaca fascicularis", "design": "time < 48 hr, dose 0.5 mg/kg, route oral", "settings": "plasma"}, "[14]": {"assay": "AUC (0 to 24 hrs) in Crl:CD (SD) albino rat at 0.5 mg/kg, po", "assay_type": "ADME, organism-based", "design": "time < 24 hr, dose 0.5 mg/kg, route oral", "settings": "plasma"}, "[15]": {"assay": "Tmax in Crl:CD (SD) albino rat at 0.5 mg/kg, po", "assay_type": "ADME, organism-based", "design": "dose 0.5 mg/kg, route oral", "settings": "in vivo"}, "[16]": {"assay": "Tmax in cynomolgus monkey at 0.5 mg/kg, po", "assay_type": "ADME, organism-based, Macaca fascicularis", "design": "dose 0.5 mg/kg, route oral", "settings": "in vivo"}, "[17]": {"assay": "Cmax in cynomolgus monkey at 0.5 mg/kg, po", "assay_type": "ADME, organism-based, Macaca fascicularis", "design": "dose 0.5 mg/kg, route oral", "settings": "in vivo"}, "[18]": {"assay": "Cmax in Crl:CD (SD) albino rat at 0.5 mg/kg, po", "assay_type": "ADME, organism-based", "design": "dose 0.5 mg/kg, route oral", "settings": "in vivo"}, "[19]": {"assay": "Total plasma clearance in cynomolgus monkey at […], iv", "assay_type": "ADME, organism-based, Macaca fascicularis", "design": "dose 0.25 mg/kg, route intravenous"}, "[20]": {"assay": "Total plasma clearance in Crl:CD (SD) albino rat at […], iv", "assay_type": "ADME, organism-based", "design": "dose 0.25 mg/kg, route intravenous"}, "[21]": {"assay": "Volume of distribution at steady state in cynomolgus monkey at […], iv", "assay_type": "ADME, organism-based, Macaca fascicularis", "design": "dose 0.25 mg/kg, route intravenous", "settings": "in vivo, read-out: Vdss"}, "[22]": {"assay": "Volume of distribution at steady state in Crl:CD (SD) albino rat at […], iv", "assay_type": "ADME, organism-based", "design": "dose 0.25 mg/kg, route intravenous", "settings": "in vivo, read-out: Vdss"}, "[23]": {"assay": "AUC (0 to 48 hrs) in cynomolgus monkey at […], iv", "assay_type": "ADME, organism-based, Macaca fascicularis", "design": "time < 48 hr, dose 0.25 mg/kg, route intravenous", "settings": "plasma"}, "[24]": {"assay": "AUC (0 to 24 hrs) in Crl:CD (SD) albino rat at […], iv", "assay_type": "ADME, organism-based", "design": "time < 24 hr, dose 0.25 mg/kg, route intravenous", "settings": "plasma"}},
  "data": [
    {"smiles": "Cc1cc(C(=O)Nc2cc(Oc3ccc4nc(NC(=O)C5CC5)cn4n3)ccc2F)n(C)n1", "values": [
      {"measurement": "logD", "setting": "[1]", "result": 2.21},
      {"measurement": "solubility thermodynamic at 18 h", "setting": "[2]", "result": 14, "unit": "µg/mL"},
      {"measurement": "microsomal CLint at 1 µM", "setting": "[3]", "result": 54, "unit": "µL/min/mg"},
      {"measurement": "microsomal CLint at 1 µM", "setting": "[4]", "result": 9, "unit": "µL/min/mg"}
    ]},
    {"smiles": "Cc1cc(C(=O)Nc2cccc(Oc3ccc4nc(NC(=O)C5CC5)cn4n3)c2)n(C)n1", "values": [
      {"measurement": "logD", "setting": "[1]", "result": 2.28},
      {"measurement": "solubility thermodynamic at 18 h", "setting": "[2]", "result": 3.7, "unit": "µg/mL"},
      {"measurement": "microsomal CLint at 1 µM", "setting": "[3]", "result": 43, "unit": "µL/min/mg"},
      {"measurement": "microsomal CLint at 1 µM", "setting": "[4]", "result": 6, "unit": "µL/min/mg"}
    ]},
    {"smiles": "Cc1cc(C(=O)Nc2cc(Oc3ccc4nc(NC(=O)C5CC5)cn4n3)ccc2C)n(C)n1", "note": "[TAK-593]", "values": [
      {"measurement": "concentration at 8 h", "setting": "[5]", "result": "< 15", "unit": "ng/g"},
      {"measurement": "concentration at 8 h", "setting": "[6]", "result": "< 3", "unit": "ng/mL"},
      {"measurement": "concentration at 1 h", "setting": "[7]", "result": 242, "unit": "ng/g"},
      {"measurement": "concentration at 1 h", "setting": "[8]", "result": 451, "unit": "ng/mL"},
      {"measurement": "bioavailability", "setting": "[9]", "result": 57.6, "unit": "%"},
      {"measurement": "bioavailability", "setting": "[10]", "result": 19.8, "unit": "%"},
      {"measurement": "MRT", "setting": "[11]", "result": 3.3, "unit": "h"},
      {"measurement": "MRT", "setting": "[12]", "result": 11, "unit": "h"},
      {"measurement": "AUC(0-t) at 48 h", "setting": "[13]", "result": 1510, "unit": "ng·h/mL"},
      {"measurement": "AUC(0-t) at 24 h", "setting": "[14]", "result": 226, "unit": "ng·h/mL"},
      {"measurement": "Tmax", "setting": "[15]", "result": 1.3, "unit": "h"},
      {"measurement": "Tmax", "setting": "[16]", "result": 2.8, "unit": "h"},
      {"measurement": "Cmax", "setting": "[17]", "result": 129, "unit": "ng/mL"},
      {"measurement": "Cmax", "setting": "[18]", "result": 56, "unit": "ng/mL"},
      {"measurement": "clearance", "setting": "[19]", "result": 3.18, "unit": "mL/min/kg"},
      {"measurement": "clearance", "setting": "[20]", "result": 7.3, "unit": "mL/min/kg"},
      {"measurement": "Vd", "setting": "[21]", "result": 1.03, "unit": "L/kg"},
      {"measurement": "Vd", "setting": "[22]", "result": 0.471, "unit": "L/kg"},
      {"measurement": "AUC(0-t) at 48 h", "setting": "[23]", "result": 1310, "unit": "ng·h/mL"},
      {"measurement": "logD", "setting": "[1]", "result": 2.24},
      {"measurement": "AUC(0-t) at 24 h", "setting": "[24]", "result": 571, "unit": "ng·h/mL"},
      {"measurement": "solubility thermodynamic at 18 h", "setting": "[2]", "result": 38, "unit": "µg/mL"},
      {"measurement": "microsomal CLint at 1 µM", "setting": "[3]", "result": 31, "unit": "µL/min/mg"},
      {"measurement": "microsomal CLint at 1 µM", "setting": "[4]", "result": 2, "unit": "µL/min/mg"}
    ]}
  ]
}
